From ChEMBL document CHEMBL5338735, “Designing Smaller, Synthetic, Functional Mimetics of Sulfated Glycosaminoglycans as Allosteric Modulators of Coagulation Factors” (J Med Chem, 2023)

Tests used:
[1] = target: Coagulation factor X (Homo sapiens) (UniProt P00742); assay: Inhibition of human factor Xa assessed as fold change relative to basal value
Prothrombin [2] = target: T1, Prothrombin (Homo sapiens, UniProt P00734); assay: Inhibition of thrombin in human plasma measured after 10 mins by chromogenic substrate hydrolysis assay; assay type: cell-free
Prothrombin [3] = target: T1, Prothrombin; assay: Inhibition of thrombin in human plasma assessed as maximal efficacy measured after 10 mins by chromogenic substrate hydrolysis assay relative to control; assay type: cell-free
Coagulation factor XI [4] = target: T2, Coagulation factor XI (Homo sapiens, UniProt P03951); assay: Inhibition of human factor XIa
Coagulation factor XI [5] = target: T2, Coagulation factor XI; assay: Inhibition of human Factor XIa assessed as substrate hydrolysis measured by measuring residual activity after 10 mins by chromogenic substrate hydrolysis assay relative to control
Coagulation factor XI [6] = target: T2, Coagulation factor XI; assay: Inhibition of human recombinant FXIa assessed as S-2366 hydrolysis

T2 sequence (P03951 19-387 limits assumed): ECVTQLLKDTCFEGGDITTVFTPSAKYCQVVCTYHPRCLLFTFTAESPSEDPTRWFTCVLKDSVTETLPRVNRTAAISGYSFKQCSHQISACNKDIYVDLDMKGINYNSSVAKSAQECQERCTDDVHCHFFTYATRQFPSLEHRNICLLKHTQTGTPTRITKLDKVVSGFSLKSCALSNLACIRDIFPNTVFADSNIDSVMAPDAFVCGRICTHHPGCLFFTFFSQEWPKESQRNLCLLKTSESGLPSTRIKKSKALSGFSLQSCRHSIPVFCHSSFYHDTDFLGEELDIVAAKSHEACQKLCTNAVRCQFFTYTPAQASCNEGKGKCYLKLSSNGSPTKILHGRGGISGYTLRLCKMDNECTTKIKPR
T2 sequence (P03951 388-625 limits assumed): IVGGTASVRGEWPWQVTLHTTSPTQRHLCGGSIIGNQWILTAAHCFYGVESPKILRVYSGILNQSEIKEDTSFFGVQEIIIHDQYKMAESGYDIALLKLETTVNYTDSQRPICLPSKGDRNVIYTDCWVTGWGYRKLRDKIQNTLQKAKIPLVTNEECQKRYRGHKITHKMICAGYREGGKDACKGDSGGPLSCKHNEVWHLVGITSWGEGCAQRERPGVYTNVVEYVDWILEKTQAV
Chain of Coagulation factor X (Homo sapiens) (P00742 41-179 limits assumed): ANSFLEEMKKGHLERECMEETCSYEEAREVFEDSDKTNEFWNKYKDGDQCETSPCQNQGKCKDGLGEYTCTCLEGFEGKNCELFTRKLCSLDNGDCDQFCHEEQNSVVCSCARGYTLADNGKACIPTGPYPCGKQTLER
Chain of Coagulation factor X (Homo sapiens) (P00742 235-488 limits assumed): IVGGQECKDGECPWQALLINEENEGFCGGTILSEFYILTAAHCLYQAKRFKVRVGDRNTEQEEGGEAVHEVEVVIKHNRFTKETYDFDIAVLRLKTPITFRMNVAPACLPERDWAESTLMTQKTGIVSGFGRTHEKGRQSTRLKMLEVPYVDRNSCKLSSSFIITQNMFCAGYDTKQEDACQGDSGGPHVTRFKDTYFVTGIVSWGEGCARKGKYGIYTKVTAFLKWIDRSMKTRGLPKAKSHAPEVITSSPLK

Compound O=S(=O)(O)Oc1cc2c(c(OS(=O)(=O)O)c1)C[C@H](OS(=O)(=O)O)[C@@H](c1ccc(OS(=O)(=O)O)c(OS(=O)(=O)O)c1)O2 has a fold change (FC) [1] of 20.8.
O=c1oc2cc(OCCCCn3cc(COc4ccc(-c5oc(=O)c6c(Cl)cc(Cl)cc6c5-c5ccccc5)cc4)nn3)ccc2c(-c2ccccc2)c1-c1ccc(OS(=O)(=O)O)cc1 gave an IC50 (Prothrombin [2]) of 180 nM and an Efficacy (Prothrombin [3]) of 47%.
Work on COc1cc2oc(C)c(C(=O)OC(C)(C)C)c2cc1OCc1oc2cc(OC)c(OS(=O)(=O)O)cc2c1C(=O)OC(C)(C)C yielded an IC50 (Coagulation factor XI [4]) of 7300 nM.
Compound Cc1ccc(C(=O)Nc2ccc(CP(=O)(O)O)cc2CP(=O)(O)O)cc1NC(=O)c1cccc(NC(=O)Nc2cccc(C(=O)Nc3cc(C(=O)Nc4ccc(CP(=O)(O)O)cc4CP(=O)(O)O)ccc3C)c2)c1 has an Activity (Coagulation factor XI [5]) of 68%.
In the case of COc1cc(CCCS(=O)(=O)O)ccc1O[C@H](Cc1cccc(OC)c1O)CS(=O)(=O)O, the IC50 (Coagulation factor XI [4]) is reported as 150 nM.
With O=C(Nc1ccc(C(=O)Nc2ccc(C(=O)Nc3ccc(S(=O)(=O)O)c4cc(S(=O)(=O)O)cc(S(=O)(=O)O)c34)cc2)cc1)Nc1ccc(C(=O)Nc2ccc(C(=O)Nc3ccc(S(=O)(=O)O)c4cc(S(=O)(=O)O)cc(S(=O)(=O)O)c34)cc2)cc1 the Activity (Coagulation factor XI [5]) was over 90%.
With O=S(=O)(O)Oc1cc2c(c(OS(=O)(=O)O)c1)C[C@@H](OS(=O)(=O)O)[C@@H](c1ccc(OS(=O)(=O)O)c(OS(=O)(=O)O)c1)O2 the fold change (FC) [1] was 10.8.
COc1cc2oc(C)c(C(=O)O)c2cc1OS(=O)(=O)O was tested, and the IC50 (Coagulation factor XI [4]) was over 2000 nM.
O=C(O[C@@H]1[C@H](OC(=O)c2cc(OS(=O)(=O)O)cc(OS(=O)(=O)O)c2)[C@@H](OC(=O)c2cc(OS(=O)(=O)O)cc(OS(=O)(=O)O)c2)[C@H](OC(=O)c2ccc(OS(=O)(=O)O)cc2OS(=O)(=O)O)[C@@H](OC(=O)c2cc(OS(=O)(=O)O)cc(OS(=O)(=O)O)c2)[C@H]1OC(=O)c1cc(OS(=O)(=O)O)cc(OS(=O)(=O)O)c1)c1cc(OS(=O)(=O)O)cc(OS(=O)(=O)O)c1 gave an IC50 (Coagulation factor XI [6]) of 280 nM.
